{"source": "patent US6794378B2", "about": "“Heterocyclic compounds and medical use thereof” (Ajinomoto Co., Inc., priority 1999, dated 2004)", "key": {"[1]": {"test_system": "NF-kappa B transcriptional activity", "test": "Evaluation of the NF-kappa B inhibition (β-gal reporter in immortalized HUVEC, IL-1 β induced)", "type": "cell-based", "conditions": "Homo sapiens; HUVEC NF-kappaB β-gal reporter cells; IL-1 β induction; β-gal activity determined 16 hours after; read-out: NFkB inhibition activity IC50", "protocol": "Evaluation of the NF-kappa B Inhibition\nCells used for the tests were those prepared by stably introducing E. coli β-galactosidase (β-gal) genes driven by SV 40 minimum promoter fused with 6 tandems of the NF-KappaB binding motif derived from immunoglobulin kappa light chain enhancer into human normal umbilical cord vein endothelial cells (HUVEC) immortalized with SV 40 large T antigen. The cells were subcultured in RPMI medium containing 10% of FBS, and were seeded on a 96-well plate in a concentration of 1×10^4/well on a day before the start of the experiments. A compound of the present invention was dissolved in DMSO to obtain a solution of a proper concentration, which was added into the 96-well plate so that the final DMSO concentration would be not higher than 1%. 30 minutes after the addition of the compound, in order to induce NF-kappa B transcriptional activity, […] of IL-1 β was added to each well so as to obtain the final concentration of […]. β-gal activity was determined 16 hours after with a chemiluminescent substrate (Galacton-Light-Plus: Boehringer Mannheim) according to a protocol attached to the reagent. A Luminescence detector (ATTO) was used for the determination."}, "[2]": {"test_system": "delayed-type hypersensitivity reaction", "test": "Delayed-type hypersensitivity reaction inhibition test (TTx challenge in thoracic skin)", "type": "in vivo", "conditions": "Rhesus monkeys, 50 mg/kg orally twice daily for 4 weeks; TTx challenge day 28, skin reactions 24 and 48 hours after, Draize criteria", "protocol": "(§1) An antibody titer inhibition test and a delayed-type hypersensitivity reaction inhibition test\n(§2) Rhesus monkeys (female, aged four to six) subjected to the test were sensitized with 6Lf of TTx (Tetanus Toxoid) both in the back skin and in the femur muscle under anesthesia by an intramuscular injection of ketamine. The subject drug at the dose of 50 mg/kg had been administered twice daily (7:00 am and 7:00 pm) for 4 weeks starting at the day of TTx sensitization. The drug was suspended with 0.5% Tween 80 solution and was orally administered using a gastric catheter. The control animals were administered with the vehicle in the same manner as those for the test article. One ml of blood was drawn from femoral vein of each animal twice a week to obtain sera with which the anti-TTx antibody titer was evaluated by the ELISA method. The antibody titer was determined with OD of serially-diluted serum from 1:100 by 2 times and was defined as the degree of dilution reaching to “an average OD of the antibody before immunization+2×SD”. One hour after the final administration in the morning on day 28, TTx was challenged once in the thoracic skin (10, 3, 1, 0.3, 0.1, 0.03 Lf/ml, 10 μl/site), and skin reactions at the injection sites were observed 24 and 48 hours after the TTx challenge. The delayed-type hypersensitivity reaction was scored according to the Draize dermal test criteria."}, "anti-TTx antibody titer": {"test_system": "anti-TTx antibody titer", "test": "Antibody titer inhibition test (TTx-sensitized monkeys, ELISA)", "type": "in vivo", "conditions": "Rhesus monkeys, 50 mg/kg orally twice daily for 4 weeks from TTx sensitization", "protocol": "as §1, §2"}}, "data": [{"smiles": "CC1(C)C[C@@H]1C(=O)Nc1ccc(Oc2ccc(NC(=O)[C@@H]3CC3(C)C)cn2)cc1", "note": "[Example 45]", "values": [{"measurement": "IC50", "setting": "[1]", "result": 1, "unit": "µg/mL"}]}, {"smiles": "CC1(C)CC1C(=O)Nc1ccc(Oc2ccc(NC(=O)Cc3ccc(Cl)cc3)cc2)nc1", "note": "(stereo not shown) [Example 33]", "values": [{"measurement": "IC50", "setting": "[1]", "result": 0.2, "unit": "µg/mL"}]}, {"smiles": "CC1(C)CC1C(=O)Nc1ccc(Oc2ccc(NC(=O)Cc3ccccc3)cc2)nc1", "note": "(stereo not shown) [Example 32]", "values": [{"measurement": "IC50", "setting": "[1]", "result": 0.1, "unit": "µg/mL"}]}, {"smiles": "CC1(C)CC1C(=O)Nc1ccc(Cc2ccc(NC(=O)C3CC3(C)C)cn2)cc1", "note": "(stereo not shown) [Example 7]", "values": [{"measurement": "IC50", "setting": "[1]", "result": 1.5, "unit": "µg/mL"}]}, {"smiles": "CC1(C)CC1C(=O)Nc1ccc(Oc2ccc(NC(=O)C3CC3(C)C)nn2)cc1", "note": "(stereo not shown) [Example 8]", "values": [{"measurement": "IC50", "setting": "[1]", "result": 1.5, "unit": "µg/mL"}]}, {"smiles": "CC1(C)CC1C(=O)Nc1ccc(Oc2ccc(NC(=O)CCCc3ccccc3)cc2)nc1", "note": "(stereo not shown) [Example 37]", "values": [{"measurement": "IC50", "setting": "[1]", "result": 0.09, "unit": "µg/mL"}]}, {"smiles": "CC1(C)CC1C(=O)Nc1ccc(CSc2ccc(NC(=O)C3CC3(C)C)cn2)cc1", "note": "(stereo not shown) [Example 14]", "values": [{"measurement": "IC50", "setting": "[1]", "result": 0.015, "unit": "µg/mL"}]}, {"smiles": "CC1(C)C[C@@H]1C(=O)Nc1ccc(Oc2ccc(NC(=O)[C@H]3CC3(C)C)cn2)cc1", "note": "[Example 43]", "values": [{"measurement": "IC50", "setting": "[1]", "result": 0.25, "unit": "µg/mL"}, {"measurement": "inhibiting effect on delayed-type hypersensitivity reaction", "setting": "[2]", "result": "exhibited its inhibiting effect"}, {"measurement": "inhibiting effect on anti-TTx antibody titer", "setting": "anti-TTx antibody titer", "result": "exhibited its inhibiting effect"}]}, {"smiles": "O=C(Nc1ccc(Oc2ccc(NC(=O)C3CC3(Cl)Cl)cn2)cc1)C1CC1(Cl)Cl", "note": "(stereo not shown) [Example 26]", "values": [{"measurement": "IC50", "setting": "[1]", "result": 0.15, "unit": "µg/mL"}]}, {"smiles": "COc1ccc(CC(=O)Nc2ccc(Oc3ccc(NC(=O)C4CC4(C)C)cn3)cc2)cc1", "note": "(stereo not shown) [Example 34]", "values": [{"measurement": "IC50", "setting": "[1]", "result": 0.3, "unit": "µg/mL"}]}, {"smiles": "CC1(C)CC1C(=O)Nc1ccc(Oc2ccc(NCCc3ccccc3)cc2)nc1", "note": "(stereo not shown) [Example 38]", "values": [{"measurement": "IC50", "setting": "[1]", "result": 0.05, "unit": "µg/mL"}]}, {"smiles": "Cc1cc(Oc2ccc(NC(=O)C3CC3(C)C)cn2)ccc1NC(=O)C1CC1(C)C", "note": "(stereo not shown) [Example 22]", "values": [{"measurement": "IC50", "setting": "[1]", "result": 0.15, "unit": "µg/mL"}]}, {"smiles": "CC1(C)CC1C(=O)Nc1ccc(Nc2ncc(NC(=O)C3CC3(C)C)cn2)cc1", "note": "(stereo not shown) [Example 9]", "values": [{"measurement": "IC50", "setting": "[1]", "result": 0.7, "unit": "µg/mL"}]}, {"smiles": "CC1(C)CC1C(=O)Nc1ccc(Oc2ccc(NC(=O)C3CC3(C)C)cn2)cc1", "note": "(stereo not shown) [Example 1]", "values": [{"measurement": "IC50", "setting": "[1]", "result": 0.5, "unit": "µg/mL"}]}, {"smiles": "CC1(C)CC1C(=O)Nc1ccc(Sc2ccc(NC(=O)C3CC3(C)C)cn2)cc1", "note": "(stereo not shown) [Example 2]", "values": [{"measurement": "IC50", "setting": "[1]", "result": 0.3, "unit": "µg/mL"}]}, {"smiles": "CC1(C)CC1C(=O)Nc1ccc(Oc2ccc(NCCCc3ccccc3)cc2)nc1", "note": "(stereo not shown) [Example 39]", "values": [{"measurement": "IC50", "setting": "[1]", "result": 0.035, "unit": "µg/mL"}]}, {"smiles": "CC1(C)CC1C(=O)Nc1ccc(Oc2ccc(NC(=O)c3ccccc3)cc2)nc1", "note": "(stereo not shown) [Example 31]", "values": [{"measurement": "IC50", "setting": "[1]", "result": 1.5, "unit": "µg/mL"}]}, {"smiles": "CC1(C)CC1C(=O)Nc1ccc(C(O)c2ccc(NC(=O)C3CC3(C)C)nc2)cc1", "note": "(stereo not shown) [Example 4]", "values": [{"measurement": "IC50", "setting": "[1]", "result": 1, "unit": "µg/mL"}]}, {"smiles": "CC1(C)CC1C(=O)Nc1ccc(Nc2ccc(NC(=O)C3CC3(C)C)cn2)cc1", "note": "(stereo not shown) [Example 3]", "values": [{"measurement": "IC50", "setting": "[1]", "result": 0.8, "unit": "µg/mL"}]}, {"smiles": "CC1(C)C[C@@H]1C(=O)Nc1ccc(Oc2ccc(NC(=O)[C@@H]3CC3(C)C)cc2)nc1", "note": "[Example 44]", "values": [{"measurement": "IC50", "setting": "[1]", "result": 0.1, "unit": "µg/mL"}]}, {"smiles": "CC1(C)CC1C(=O)Nc1ccc(C(O)c2ccc(NC(=O)C3CC3(C)C)cn2)cc1", "note": "(stereo not shown) [Example 6]", "values": [{"measurement": "IC50", "setting": "[1]", "result": 0.4, "unit": "µg/mL"}]}, {"smiles": "CC1CCCCC1C(=O)Nc1ccc(Oc2ccc(NC(=O)C3CCCCC3C)cn2)cc1", "note": "(stereo not shown) [Example 29]", "values": [{"measurement": "IC50", "setting": "[1]", "result": 1, "unit": "µg/mL"}]}, {"smiles": "CC1(C)CC1C(=O)Nc1ccc(Cc2ccc(NC(=O)C3CC3(C)C)nc2)cc1", "note": "(stereo not shown) [Example 5]", "values": [{"measurement": "IC50", "setting": "[1]", "result": 0.9, "unit": "µg/mL"}]}]}
